How the values were obtained:
[1] = test system: acute thrombosis in the pulmonary artery; assay: Acute thrombosis (collagen plus epinephrine i.v.) in mice, recovery from paralysis; assay type: in vivo
Procedure: A mixture of collagen (300:μg/kg) plus epinephrine (30:μg/kg) was injected into the tail vein of mice (ICR; […], the same mice were employed in all of the following experiments) to induce massive, acute thrombosis in the pulmonary artery. Thus, an acute thrombosis model, in which mice were paralyzed in 1-3 min after the injection and most of them died within 15 min was prepared. To investigate the effect of the compounds of Chemical Formulas 1 and 2 on the acute thrombosis, either of the compounds was orally administered to mice for 1 or 3 days. The intravenous injection of the mixture of collagen and epinephrine was conducted 1 hour after the final oral administration. An observation was taken to examine the mortality change and the recovery from the paralysis and the results are given in Tables 4 and 5, below.
Most of the mice were paralyzed within 1 min after the injection, following dilation of the pupils, difficult breathing, and convulsions. Most of the mice either died within 5 min or were subjected to paralysis for 15 min or longer. Only a few of them recovered from the paralysis.

[2] = test system: thrombus formation in AVS tube; assay: Thrombus formation in arterio-venous shunt (AVS) tube in rats; assay type: in vivo
Procedure: An AVS tube was prepared. For this, a scalp vein set was cut into a length of 18 cm, and each end was connected to a 18G syringe needle while a 100% cotton thread 5 cm long was fixed to the center of the tube. Rats were anesthetized with ketamine (250 mg/kg) by injection (i.m.) and underwent laparotomy. An AVS tube filled with saline was installed between the abdominal aorta and the renal vein in such a way that its one syringe needle was inserted in the abdominal aorta and the other syringe needle was inserted in the renal vein. Blood was allowed to pass through the AVS tube so as to form thrombus on the cotton thread. After circulation of blood through the AVS tube for 15 min, the thread was taken out from the AVS tube. The weight of the thrombus formed on the cotton thread was determined by weighing the thread.

[3] = molecular target: α-receptor; assay: Binding affinity to α-adrenoceptor, [3H]prazosin, rat cerebral cortical membrane
Procedure: For this, the cerebral cortex obtained from rats (Sprague-Dawley, 250±20 g; unless particularly mentioned, the same rats were used in the following experiments) was homogeneously mixed with a 20× buffer (50 mM Tris, 5 mM MgSO4, 1 mM EDTA, 1 mM ascorbic acid, pH 7.7) and then, centrifuged three times at 35,000×g for 15 min and the pellet was stored at −70° C. A solution of 5 mg of the pellet in 1 ml of the buffer was incubated, along with [^3H]prazosin (200 pM) and samples, at 25° C. for 30 min followed by adding 10 ml of a buffer (50 mM Tris, pH 7.7) to quench the binding reaction. The resulting solution was filtered through a Whatman GF/C glass microfiber filter which was then shaken for 2 hours while being completely submerged in a scintillation cocktail. The radioactivity was measured using a scintillation counter (Beckman, LS6500)

CC(=O)Oc1ccccc1C(=O)O [Aspirin, reference compound]
Mice Recovered, Number ([1]; 50 mg/kg orally once for three successive days, recovered within 15 min): 11
Mice Recovered, % ([1]; 50 mg/kg orally once for three successive days, recovered within 15 min, control 20%): 55%
Mice Recovered, Number ([1]; 50 mg/kg orally once, recovered from thrombotic paralysis within 15 min): 32
Mice Recovered, % ([1]; 50 mg/kg orally once, recovered within 15 min, control 17%): 52%
% Inhibition of thrombus formation ([2]; 50 mg/kg orally once a day for successive three days): 12.4%
Weight (mg) of thrombus ([2]; 50 mg/kg orally once a day for successive three days, control 42.67 ± 5.381): 37.37 ± 7.369 mg
% Inhibition of thrombus formation ([2]; 50 mg/kg orally once, first series, control 33.61 mg): 40.8%
Weights (mg) of thrombus ([2]; 50 mg/kg orally once, first series, control 33.61 ± 7.620): 19.89 ± 7.213 mg
% Inhibition of thrombus formation ([2]; 50 mg/kg orally once, second series, control 39.54 mg): 36.3%
Weights (mg) of thrombus ([2]; 50 mg/kg orally once, second series, control 39.54 ± 5.625): 25.18 ± 6.725 mg

COc1cc2nc(N3CCN(C(=O)c4ccco4)CC3)nc(N)c2cc1OC [prazosin, reference compound]
Kd [3]: 0.134 ± 0.00891 nM

Reference: patent US6562837B1, “Use of tetrahydroisoquinoline compounds for the treatment of septicemia” (Korea Institute of Science & Technology, priority 1998, dated 2003)
